Source: PMC6017655, “In Silico and in Vitro-Guided Identification of Inhibitors of Alkylquinolone-Dependent Quorum Sensing in Pseudomonas aeruginosa” (Molecules : A Journal of Synthetic Chemistry and Natural …, 2018)
Where two headings read alike, the source gives them in different places.

Key:
Plasma stability, human = assay type: in vitro ADME; settings: 37 °C; for half-life at 1 µM: human, plasma, up to 2 h, read-out: Plasma Stability Human t 1/2
Description: (§1) Dilutions of a 10 mM test compound DMSO stock solution were prepared so that the final DMSO concentration was 1% v/v and the final test compound concentration tested was 1 µM. Following the addition of the test compound to plasma, the samples were pre-incubated for 10 min prior to the start of the incubation by the addition of the test compound. The test compound was incubated (n = 2; 1 µM final concentration) at 37 °C with plasma for up to 2 h. Aliquots were sampled at several time points and mixed with acetonitrile (containing internal standard) to terminate the reaction and precipitate the proteins. All the samples were mixed, centrifuged and the supernatants analysed by UPLC-MSMS. Parent disappearance and half-life (t 1/2) values were determined from the slope of the parent depletion curve. Control compounds (imidapril, enalapril, tenofovir and/or propantheline), were respectively included.

[1] = system: PqsR (pqsA promoter, PAO1-L mCTX::PpqsA-lux); assay: Whole cell biosensor reporter assay, PAO1-L mCTX::PpqsA-lux; assay type: cell-based, Pseudomonas aeruginosa; settings: for IC50: Mean ± SD, n = 3; for activity at 10 µM: PAO1, read-out: PAO1-L Remaining Activity %; for PqsR inhibitory activity (in words), PAO1-L: screen at 10 µM / dose-response
Description: (§2) To determine the ability of the quinolines to inhibit PqsR functionality, the P. aeruginosa biosensor strains, PAO1-L and PA14, incorporating a chromosomal mCTX::PpqsA-lux transcriptional fusion, were used. These report on the activation of the pqsA promoter, regulated by PqsR [25]. PAO1-L and PA14 were chosen because they are genetically amenable and belong to the two major P. aeruginosa genomic groups. The quinolone compounds were incubated with the corresponding strain, and luminescence and optical density readings were recorded to monitor the effect of the quinolines on PqsR activity and bacterial growth, respectively. The compounds were screened at 10 µM concentration, and the activity was compared to a control of DMSO (0.1%) (Figure 3a). To be considered a hit, a threshold of at least 50% inhibition of the test compound, relative to the negative control had to be reached, without affecting bacterial growth. […] Concentration-response experiments were then carried out to determine the IC50 values (Figure 3b,c), which are summarised in Table 1.
(§3) Strains PA14 mCTX::PpqsA-lux and PAO1-L mCTX::PpqsA-lux were constructed using plasmid mini-CTX::PpqsA-lux, as previously described, and the assay was performed according to a published protocol. For screening, the compounds were tested at a concentration of 10 µM, which was prepared from a 10 mM stock, in DMSO.

[2] = Hepatic microsomal stability, human; assay type: in vitro ADME; settings: liver microsomes, pH 7.4, 0.5 mg/mL protein, NADPH, 37 °C; for half-life at 1 µM: read-out: Microsomal Stability Human t1/2
Description: (§4) Dilutions of a 1 mM test compound DMSO stock solution were prepared in buffer (typically 0.01 M phosphate buffered saline (pH 7.4) so that the final DMSO concentration was 0.1% v/v and the final test compound concentration tested was 1 µM. Following addition of protein (0.5 mg/mL final) and NADPH, the samples were pre-incubated for 10 min prior to the start of the incubation by the addition of test compound. The test compounds were then incubated (n = 2; 1 µM final concentration) at 37 °C with tissue microsomes. Aliquots were sampled at several time points and mixed with acetonitrile (containing internal standard) to terminate the reaction and precipitate the proteins. All the samples were mixed, centrifuged and the supernatants analysed by UPLC-MS/MS. The intrinsic clearance (Clint) and half-life (t 1/2) values were determined from the slope of the parent depletion curve. Control compounds for low, moderate and high intrinsic clearance, respectively, for both human and rat microsomes, were included.

AQ production in PA14 = assay: Alkylquinolone (HHQ, PQS, HQNO) production by LC-MS/MS, PA14; assay type: cell-based, Pseudomonas aeruginosa; settings: 3x IC50, 16 h, culture supernatant
Description: (§5) HQNO, can protect Staphylococcus aureus from vancomycin [31] and contributes to the environmental competitiveness of P. aeruginosa, through its activity as a potent inhibitor of the cytochrome bc1 complex. […] LC-MS/MS was used to quantify the major AQs HHQ, PQS and HQNO after incubation of the P. aeruginosa strains with the hit compounds, for 16 h. The assay was performed using both PAO1-L and PA14 strains which were treated with PqsR antagonists at concentrations three-fold higher than their IC50 values. The results obtained depended on the inhibitor and strain tested (Figure 5).
(§6) For each test sample, 100 µL of sterile filtered supernatant (the same preparation as for pyocyanin) was spiked with 10 µL of an internal standard solution (10 µM d4-PQS in MeOH), and diluted with water, to a total volume of 500 µL. Samples were then extracted three times with an 0.5 mL aliquot of ethyl acetate, vortex mixing the aqueous/organic mix for 2 min, then removing the organic phase once the layers had successfully partitioned. For each sample, the combined organic extracts were dried under vacuum and re-dissolved in 100 µL MeOH prior to analysis. For the LC-MS/MS analysis of supernatant extracts, the chromatography was achieved using a Shimadzu series 10AD VP LC system (Columbia, MD, USA). The LC column, maintained at 40 °C, was a Phenomenex Gemini C18 (3.0 µm, 100 × 3.0 mm) (Macclesfield, Cheshire, UK) with an appropriate guard column. Mobile phase A was 0.1% (v/v) formic acid in water containing 2 mM 2-picolinic acid, and mobile phase B 0.1% (v/v) formic acid in methanol. The flow rate throughout the chromatographic separation was 450 µL/min. After an injection of a 2 µL/sample, a binary gradient, beginning initially at 30% B, increased linearly to 99% B over 5 min. The composition remained at 99% B for 3 min, decreased to 30% B over 1 min, and stayed at this composition for 4 min, to allow for column equilibration. […] Where chromatographic peaks for HHQ, HQNO and PQS were detected, a peak area was determined, and analyte peak area/internal standard peak area calculated.

[3] = system: PqsR (pqsA promoter, PA14 mCTX::PpqsA-lux); assay: Whole cell biosensor reporter assay, PA14 mCTX::PpqsA-lux; assay type: cell-based, Pseudomonas aeruginosa; settings: for IC50: Mean ± SD, n = 3; for activity at 10 µM: PA14, read-out: PA14 Remaining Activity %; for PqsR inhibitory activity (in words), PA14: screen at 10 µM
Description: as §2, §3

PAO1-L = assay: Bacterial growth (optical density) in reporter assay, PAO1-L; assay type: cell-based, Pseudomonas aeruginosa; settings: compound vs DMSO control
Description: as §2
(§7) Figure 3 Whole bacterial cell-based P. aeruginosa compound screen for both PqsR and growth inhibition (a) Activity against PA14 (green) and PAO1-L (purple) PpqsA-lux reporter strains at 10 µM test compound; (b) and (c) Dose-response curves for active compounds against PA14 (b) and PAO1-L (c); (d) and (e) growth curves for PA14 (d) and PAO1-L (e) in the presence of compound or DMSO control.

AQ production in PAO1-L = assay: Alkylquinolone (HHQ, PQS, HQNO) production by LC-MS/MS, PAO1-L; assay type: cell-based, Pseudomonas aeruginosa; settings: 3x IC50, 16 h, culture supernatant
Description: as §5, §6

Plasma stability, rat = assay type: in vitro ADME; settings: 37 °C, up to 2 h, read-out: Plasma Stability Rat t1/2
Description: as §1

[4] = Hepatic microsomal stability, rat; assay type: in vitro ADME; settings: liver microsomes, pH 7.4, 0.5 mg/mL protein, NADPH, 37 °C; for microsomal CLint at 1 µM: read-out: Microsomal Stability Rat Clint (intrinsic clearance); for half-life at 1 µM: read-out: Microsomal Stability Rat t1/2
Description: as §4

PA14 = assay: Bacterial growth (optical density) in reporter assay, PA14; assay type: cell-based, Pseudomonas aeruginosa; settings: compound vs DMSO control
Description: as §2, §7

[5] = Pseudomonas aeruginosa, PAO1, read-out: IC50 PAO1-L, PpqsA-lux reporter
[6] = read-out: IC50 PAO1-L, PpqsA-lux reporter
[7] = Pseudomonas aeruginosa, PA14, read-out: IC50 PA14, PpqsA-lux reporter

| SMILES | half-life at 1 µM (Plasma stability, human) | IC50 [1, 5] | activity at 10 µM ([1]; Pseudomonas aeruginosa) | IC50 [1, 6] | PqsR inhibitory activity (in words), PAO1-L [1] | microsomal CLint at 1 µM [2] | half-life at 1 µM [2] | Inhibition of AQ production (in words), PA14 (AQ production in PA14) | IC50 [3, 7] | activity at 10 µM ([3]; Pseudomonas aeruginosa) | PqsR inhibitory activity (in words), PA14 [3] | Effect on bacterial growth, PAO1-L (PAO1-L) | Inhibition of AQ production (in words), PAO1-L (AQ production in PAO1-L) | half-life at 1 µM (Plasma stability, rat) | microsomal CLint at 1 µM [4] | half-life at 1 µM [4] | Effect on bacterial growth, PA14 (PA14) | Plasma stability (in words), human plasma (Plasma stability, human; 1 µM) | IC50 ([3]; read-out: IC50 PA14, PpqsA-lux reporter) |
| --- | --- | --- | --- | --- | --- | --- | --- | --- | --- | --- | --- | --- | --- | --- | --- | --- | --- | --- | --- |
| O=CN1N=C(c2ccccc2)CC1c1cccc(Nc2ccnc3cc(C(F)(F)F)ccc23)c1 (stereo not shown) [Ii] | 69.1 min | 5 µM | 15.6 ± 2.53% | 5.1 ± 0.32 µM | strong PqsR inhibitory activity | 80.7 µL/min/mg | 17.2 min | not observed | 5 ± 0.82 µM | 16.6 ± 1.3% | strong PqsR inhibitory activity | without interfering with bacterial growth | greatest inhibition | > 240 min | 54.1 µL/min/mg | 25.7 min | without interfering with bacterial growth | – | – |
| CC(=O)N1N=C(c2ccccc2)CC1c1cccc(Nc2ccnc3cc(C(F)(F)F)ccc23)c1 (stereo not shown) [IIi] | 157 min | 5 µM | 26.1 ± 0.99% | 5.14 ± 0.6 µM | strong PqsR inhibitory activity | 72.9 µL/min/mg | 19 min | – | 5 µM | 16.8 ± 1.01% | strong PqsR inhibitory activity | without interfering with bacterial growth | – | > 240 min | 65.7 µL/min/mg | 21.1 min | without interfering with bacterial growth | greatest plasma stability | 4.9 ± 0.3 µM |
